Assay results reported in patent US10266523B2, “Crystaline forms of N-[6-(cis-2,6-dimethylmorpholine-4-yl)pyridine-3-yl]-2-Methyl-4′-(trifluoromethoxy) [1,1′-biphenyl]-3-Methanamide monophosphate, and process of preparation thereof” (CRYSTAL PHARMATECH CO., LTD., priority 2015, dated 2019).
Entries after “also recorded” stand apart in the source; their conditions may differ. Like-named read-outs stand apart in the source and are kept apart here. One block for each compound: values may come before it.

Tests used:
[1] = Solid-state storage stability, form change detected by XRPD; format: physicochemical; conditions: 120 days
Excerpt: The samples after storage were detected by XRPD.

[2] = Stability of crystalline forms in water and simulated biological media (saturated solution, XRPD of solid); format: physicochemical; conditions: for Final form: SGF, listed as Crystalline Form A of monophosphate
Description: After being equilibrated for 1 hour, 4 hours and 24 hours, a small amount solid of each saturated solution was carried out for XRPD test, the testing result is shown in table 9, and the XRPD contrast diagram after 1 hour is shown in FIG. 9, wherein a is starting form of diphosphonate, b is monophosphate Form B of the present disclosure, c is the crystalline form of the diphosphonate after 1 hour in water, d is the crystalline form of the diphosphonate after 1 hour in SGF, e is the crystalline form of the diphosphonate after 1 hour in the FaSSIF, and f is the crystalline form of the diphosphonate after 1 hour in FeSSIF.

[3] = cited from earlier work
[4] = Hygroscopicity assessment by dynamic vapor sorption (DVS); format: physicochemical; conditions: 25° C.; for Weight Gain at 80% Relative Humidity: DVS, 10 mg
Description: Dynamic Vapor Sorption (DVS) is measured via a SMS (Surface Measurement Systems) DVS Intrinsic, using 10 mg of crystalline form. Typical Parameters for DVS test are listed below: Temperature: 25° C. Gas and flow rate: N2, 200 mL/min dm/dt: 0.002%/min RH range: 0% RH to 95% RH Stable duration: 10 min Maximum equilibrate time: 180 min Humidity gradient: 10%(0% RH-90% RH), 5%(90% RH-95% RH), Hygroscopicity of 10 mg of monophosphate Form A of compound of formula (I) was tested using dynamic vapor sorption (DVS). About hygroscopicity characterization description and definition of hygroscopicity (Chinese Pharmacopoeia 2010 edition appendix XIXJ Drug hygroscopic test guidelines, test at 25° C.+/−1° C., 80% Relative Humidity) • deliquescent: sufficient water is absorbed to form a liquid. • very hygroscopic: increase in mass is equal to or greater than 15%. • hygroscopic: increase in mass is less than 15% and equal to or greater than 2%. • slightly hygroscopic: increase in mass is less than 2% and equal to or greater than 0.2%. • no or almost no hygroscopic: increase in mass is less than 0.2%.

[5] = Particle size distribution test (Microtrac S3500 laser particle size analyzer, wet process); format: physicochemical; conditions: for MV (average particle size calculated by volume): dispersion medium Isopar G; for D10 / D50 / D90: volume distribution, Isopar G
Description: The particle size distribution test in the present disclosure is acquired by the S3500 laser particle size analyzer of Microtrac. Microtrac S3500 is equipped with the Sample Delivery Controller. The test is carried out by wet process, and the dispersion medium is Isopar G The parameters are as follow: [table] 10-30 mg sample was dispersed with 10 mL Isopar G (containing 0.2% of lecithin). The sample is added into the SDC sample injection system when fully mixed. Start the experiment when the sample amount indication chart reaches a proper position. The result of particle size distribution test is shown in table 13, the particle size distribution diagram of the Form A is shown in FIG. 10, and the particle size distribution diagram of the Form B of monophosphate is shown in FIG. 11.

[6] = listed as Crystalline Form A of monophosphate
[7] = listed as Crystalline Form B of monophosphate

Form Change ([1]; 5° C.): Diphosphonate
Form Change ([1]; 25° C./60% RH): Diphosphonate
Form Change ([1]; 40° C./75% RH, listed as diphosphonate in CN102159570): partly changed into Form B
form conversion in media ([2]; four media, equilibrated for 1 hour): convert into Form B of monophosphate
Compound: Cc1c(C(=O)Nc2ccc(N3C[C@@H](C)O[C@@H](C)C3)nc2)cccc1-c1ccc(OC(F)(F)F)cc1.O=P(O)(O)O.O=P(O)(O)O [Diphosphonate in CN102159570, reference compound]
XRPD of the crystalline form after storage ([3]; 50° C./75% RH, 2 weeks): slightly changed
XRPD of the crystalline form after storage ([3]; 80° C./75% RH, two weeks): changed

Weight Gain at 80% Relative Humidity [4]: 0.59%
Weight Gain at 80% Relative Humidity ([4]; listed as monophosphate Form A): 0.59%
Form Change ([1]; 5° C.): Form A
Form Change ([1]; 25° C./60% RH): Form A
Form Change ([1]; 40° C./75% RH): Form A and Form B
Final form ([2]; equilibrium time 1 h): Changed
Final form ([2]; equilibrium time 4 h): Changed
Final form ([2]; equilibrium time 24 h): Changed
stability of crystalline form in media ([2]; water, FaSSIF and FeSSIF, after 1, 4, and 24 hours): stable
MV (average particle size calculated by volume) [5, 6]: 136.5 um
D10 [5, 6]: 22.7 um
D50 [5, 6]: 100.2 um
D90 [5, 6]: 305.2 um
Compound: Cc1c(C(=O)Nc2ccc(N3CC(C)OC(C)C3)nc2)cccc1-c1ccc(OC(F)(F)F)cc1 (stereo not drawn) [Form A, N-[6-(cis-2,6-dimethylmorpholine-4-yl)pyridine-3-yl]-2-methyl-4′-(trifluoromethoxy) [1,1′-biphenyl]-3-carboxamide monophosphate]
hygroscopicity class (Chinese Pharmacopoeia 2010 definition) ([4]; 80% Relative Humidity): slightly hygroscopic (increase in mass is less than 2% and equal to or greater than 0.2%)
particle size homogeneity and dispersion [5]: homogeneous particle size and good dispersion

Form Change ([1]; 5° C.): Form B
Form Change ([1]; 25° C./60% RH): Form B
Form Change ([1]; 40° C./75% RH): remains unchanged; also recorded: Form B
stability of crystalline form in media ([2]; all of the four kinds of media (water, SGF, FaSSIF, FeSSIF)): do not change
MV (average particle size calculated by volume) [5, 7]: 55.4 um
D10 [5, 7]: 8.8 um
D50 [5, 7]: 37.5 um
D90 [5, 7]: 124.2 um
Compound: Cc1c(C(=O)Nc2ccc(N3CC(C)OC(C)C3)nc2)cccc1-c1ccc(OC(F)(F)F)cc1 (stereo not drawn) [Form B, N-[6-(cis-2,6-dimethylmorpholine-4-yl)pyridine-3-yl]-2-methyl-4′-(trifluoromethoxy) [1,1′-biphenyl]-3-carboxamide monophosphate]
particle size homogeneity and dispersion [5]: homogeneous particle size and good dispersion
